Assays:
Homo sapiens [1] = species on record: Homo sapiens; experiment: Selectivity for p38alpha MAP kinase (unknown origin) over ROCK1 (unknown origin)
Homo sapiens [2] = species on record: Homo sapiens; experiment: Selectivity for p38alpha MAP kinase (unknown origin) over IRAK1 (unknown origin)
Homo sapiens [3] = species on record: Homo sapiens; experiment: Selectivity for p38alpha MAP kinase (unknown origin) over IKK-alpha (unknown origin)
Homo sapiens [4] = species on record: Homo sapiens; experiment: Selectivity for p38alpha MAP kinase (unknown origin) over FGR (unknown origin)
Homo sapiens [5] = species on record: Homo sapiens; experiment: Selectivity for p38alpha MAP kinase (unknown origin) over RPS6KA5 (unknown origin)
[6] = biological target: T1, Mitogen-activated protein kinase 14 (Homo sapiens, UniProt Q16539); experiment: Competitive inhibition of p38alpha MAP kinase (unknown origin) at 10 uM in presence of 100 uM ATP
T1 sequence (Q16539 whole entry): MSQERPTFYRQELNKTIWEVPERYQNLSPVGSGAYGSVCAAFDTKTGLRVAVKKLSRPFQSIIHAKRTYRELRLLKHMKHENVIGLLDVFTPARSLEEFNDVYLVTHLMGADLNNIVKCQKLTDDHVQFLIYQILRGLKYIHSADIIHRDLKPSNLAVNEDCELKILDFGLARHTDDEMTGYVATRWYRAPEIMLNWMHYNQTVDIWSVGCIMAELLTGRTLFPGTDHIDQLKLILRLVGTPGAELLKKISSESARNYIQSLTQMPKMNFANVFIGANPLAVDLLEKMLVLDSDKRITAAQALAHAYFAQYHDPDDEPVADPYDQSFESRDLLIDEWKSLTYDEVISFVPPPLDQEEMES

Homo sapiens [7] = species on record: Homo sapiens; experiment: Selectivity for p38alpha MAP kinase (unknown origin) over FLT3 D835Y mutant (unknown origin)
Homo sapiens [8] = species on record: Homo sapiens; experiment: Selectivity for p38alpha MAP kinase (unknown origin) over MET Y1230A mutant (unknown origin)
Homo sapiens [9] = species on record: Homo sapiens; experiment: Selectivity for p38alpha MAP kinase (unknown origin) over EPHB2 (unknown origin)
Homo sapiens [10] = species on record: Homo sapiens; experiment: Selectivity for p38alpha MAP kinase (unknown origin) over GRK4 (unknown origin)
Homo sapiens [11] = species on record: Homo sapiens; experiment: Selectivity for p38alpha MAP kinase (unknown origin) over RIPK2 (unknown origin)
Homo sapiens [12] = species on record: Homo sapiens; experiment: Selectivity for p38alpha MAP kinase (unknown origin) over MEK2 (unknown origin)
Homo sapiens [13] = species on record: Homo sapiens; experiment: Selectivity for p38alpha MAP kinase (unknown origin) over RAF1 Y340D/Y341D double mutant (unknown origin)
[14] = biological target: T1, Mitogen-activated protein kinase 14; experiment: Inhibition of p38alpha MAP kinase in human whole blood assessed as inhibition of LPS-induced TNFalpha release by ELISA
Homo sapiens [15] = species on record: Homo sapiens; experiment: Selectivity for p38alpha MAP kinase (unknown origin) over NEK2 (unknown origin)
Homo sapiens [16] = species on record: Homo sapiens; experiment: Selectivity for p38alpha MAP kinase (unknown origin) over MET D1228H mutant (unknown origin)
Homo sapiens [17] = species on record: Homo sapiens; experiment: Selectivity for p38alpha MAP kinase (unknown origin) over FGF-R2 (unknown origin)
Homo sapiens [18] = species on record: Homo sapiens; experiment: Selectivity for p38alpha MAP kinase (unknown origin) over DAPK2 (unknown origin)
Homo sapiens [19] = species on record: Homo sapiens; experiment: Selectivity for p38alpha MAP kinase (unknown origin) over ARK5 (unknown origin)
Homo sapiens [20] = species on record: Homo sapiens; experiment: Selectivity for p38alpha MAP kinase (unknown origin) over SNF1LK2 (unknown origin)
Homo sapiens [21] = species on record: Homo sapiens; experiment: Selectivity for p38alpha MAP kinase (unknown origin) over IGF1-R (unknown origin)
Homo sapiens [22] = species on record: Homo sapiens; experiment: Selectivity for p38alpha MAP kinase (unknown origin) over wild-type ABL1 (unknown origin)
Homo sapiens [23] = species on record: Homo sapiens; experiment: Selectivity for p38alpha MAP kinase (unknown origin) over PASK (unknown origin)
Homo sapiens [24] = species on record: Homo sapiens; experiment: Selectivity for p38alpha MAP kinase (unknown origin) over CDK1/CycB1 (unknown origin)
Homo sapiens [25] = species on record: Homo sapiens; experiment: Selectivity for p38alpha MAP kinase (unknown origin) over SRPK1 (unknown origin)
Homo sapiens [26] = species on record: Homo sapiens; experiment: Selectivity for p38alpha MAP kinase (unknown origin) over JNK3 (unknown origin)
Homo sapiens [27] = species on record: Homo sapiens; experiment: Selectivity for p38alpha MAP kinase (unknown origin) over VEGF-R1 (unknown origin)
Homo sapiens [28] = species on record: Homo sapiens; experiment: Selectivity for p38alpha MAP kinase (unknown origin) over FLT3 ITD (unknown origin)
Homo sapiens [29] = species on record: Homo sapiens; experiment: Selectivity for p38alpha MAP kinase (unknown origin) over VEGF-R3 (unknown origin)
Homo sapiens [30] = species on record: Homo sapiens; experiment: Selectivity for p38alpha MAP kinase (unknown origin) over EGFR 747 to 752 deletion/P753S mutant (unknown origin)
Homo sapiens [31] = species on record: Homo sapiens; experiment: Selectivity for p38alpha MAP kinase (unknown origin) over ERBB4 (unknown origin)
[32] = biological target: Mitogen-activated protein kinase 11 (Homo sapiens) (UniProt Q15759); experiment: Inhibition of p38beta MAP kinase (unknown origin) at 10 uM
Sequence of Mitogen-activated protein kinase 11 (Homo sapiens) (Q15759 whole entry): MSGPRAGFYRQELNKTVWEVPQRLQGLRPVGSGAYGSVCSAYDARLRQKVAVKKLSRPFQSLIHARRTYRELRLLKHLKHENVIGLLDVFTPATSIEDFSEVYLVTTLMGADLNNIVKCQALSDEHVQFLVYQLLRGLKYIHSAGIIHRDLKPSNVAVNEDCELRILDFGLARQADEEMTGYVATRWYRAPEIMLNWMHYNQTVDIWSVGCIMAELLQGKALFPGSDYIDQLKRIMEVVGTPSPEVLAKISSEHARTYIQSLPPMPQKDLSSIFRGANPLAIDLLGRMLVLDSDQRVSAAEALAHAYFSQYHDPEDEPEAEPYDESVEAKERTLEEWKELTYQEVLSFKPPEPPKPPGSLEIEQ

Homo sapiens [33] = species on record: Homo sapiens; experiment: Selectivity for p38alpha MAP kinase (unknown origin) over PAK1 (unknown origin)
Homo sapiens [34] = species on record: Homo sapiens; experiment: Selectivity for p38alpha MAP kinase (unknown origin) over DYRK1B (unknown origin)
[35] = biological target: STE20-like serine/threonine-protein kinase (Homo sapiens) (UniProt Q9H2G2); experiment: Inhibition of SLK (unknown origin) at 10 uM
Sequence of STE20-like serine/threonine-protein kinase (Homo sapiens) (Q9H2G2 whole entry, looked up): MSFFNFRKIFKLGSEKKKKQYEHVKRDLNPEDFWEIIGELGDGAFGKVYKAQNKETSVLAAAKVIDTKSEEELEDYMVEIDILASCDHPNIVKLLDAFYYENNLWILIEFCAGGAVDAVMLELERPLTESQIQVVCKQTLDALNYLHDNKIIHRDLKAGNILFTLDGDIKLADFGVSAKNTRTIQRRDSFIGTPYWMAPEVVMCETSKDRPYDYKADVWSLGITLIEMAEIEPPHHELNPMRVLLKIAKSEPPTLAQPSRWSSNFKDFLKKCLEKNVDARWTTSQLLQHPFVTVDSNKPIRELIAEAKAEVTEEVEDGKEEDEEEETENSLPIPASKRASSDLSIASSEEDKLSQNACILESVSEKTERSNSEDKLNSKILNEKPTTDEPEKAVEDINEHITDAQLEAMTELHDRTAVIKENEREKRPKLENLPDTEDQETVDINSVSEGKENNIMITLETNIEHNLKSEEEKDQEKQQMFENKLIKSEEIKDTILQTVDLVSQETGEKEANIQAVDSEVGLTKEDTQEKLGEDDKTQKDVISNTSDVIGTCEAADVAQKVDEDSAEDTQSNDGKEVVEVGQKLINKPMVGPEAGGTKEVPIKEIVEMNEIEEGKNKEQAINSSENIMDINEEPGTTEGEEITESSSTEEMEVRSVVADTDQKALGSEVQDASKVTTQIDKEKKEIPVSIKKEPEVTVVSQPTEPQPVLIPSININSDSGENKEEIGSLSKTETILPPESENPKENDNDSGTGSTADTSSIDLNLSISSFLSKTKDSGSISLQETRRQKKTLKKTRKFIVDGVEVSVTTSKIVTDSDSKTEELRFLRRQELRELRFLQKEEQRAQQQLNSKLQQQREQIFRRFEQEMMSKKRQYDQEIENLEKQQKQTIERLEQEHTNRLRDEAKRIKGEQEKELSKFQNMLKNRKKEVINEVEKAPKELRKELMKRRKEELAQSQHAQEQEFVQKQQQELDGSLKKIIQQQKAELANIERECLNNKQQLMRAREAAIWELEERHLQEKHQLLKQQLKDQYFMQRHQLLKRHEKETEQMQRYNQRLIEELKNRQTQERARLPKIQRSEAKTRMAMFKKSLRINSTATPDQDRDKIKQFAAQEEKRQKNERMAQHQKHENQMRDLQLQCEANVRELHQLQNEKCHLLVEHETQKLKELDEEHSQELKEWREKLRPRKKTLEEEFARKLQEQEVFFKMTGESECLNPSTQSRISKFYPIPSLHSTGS

Homo sapiens [36] = species on record: Homo sapiens; experiment: Selectivity for p38alpha MAP kinase (unknown origin) over PAK2 (unknown origin)
Homo sapiens [37] = species on record: Homo sapiens; experiment: Selectivity for p38alpha MAP kinase (unknown origin) over GRK7 (unknown origin)
Homo sapiens [38] = species on record: Homo sapiens; experiment: Selectivity for p38alpha MAP kinase (unknown origin) over CK1-alpha1 (unknown origin)
Homo sapiens [39] = species on record: Homo sapiens; experiment: Selectivity for p38alpha MAP kinase (unknown origin) over Aurora-B (unknown origin)
Homo sapiens [40] = species on record: Homo sapiens; experiment: Selectivity for p38alpha MAP kinase (unknown origin) over EGFR G719C mutant (unknown origin)
Homo sapiens [41] = species on record: Homo sapiens; experiment: Selectivity for p38alpha MAP kinase (unknown origin) over CHK1 (unknown origin)
Homo sapiens [42] = species on record: Homo sapiens; experiment: Selectivity for p38alpha MAP kinase (unknown origin) over WNK2 (unknown origin)
Homo sapiens [43] = species on record: Homo sapiens; experiment: Selectivity for p38alpha MAP kinase (unknown origin) over INS-R (unknown origin)
Homo sapiens [44] = species on record: Homo sapiens; experiment: Selectivity for p38alpha MAP kinase (unknown origin) over PKC-beta1 (unknown origin)
Homo sapiens [45] = species on record: Homo sapiens; experiment: Selectivity for p38alpha MAP kinase (unknown origin) over ASK1 (unknown origin)
Homo sapiens [46] = species on record: Homo sapiens; experiment: Selectivity for p38alpha MAP kinase (unknown origin) over IRAK4 (unknown origin)
Homo sapiens [47] = species on record: Homo sapiens; experiment: Selectivity for p38alpha MAP kinase (unknown origin) over PDGFR-alpha D842V mutant (unknown origin)
Homo sapiens [48] = species on record: Homo sapiens; experiment: Selectivity for p38alpha MAP kinase (unknown origin) over SRMS (unknown origin)
Homo sapiens [49] = species on record: Homo sapiens; experiment: Selectivity for p38alpha MAP kinase (unknown origin) over MAP3K7/MAP3K7IP1 (unknown origin)
Homo sapiens [50] = species on record: Homo sapiens; experiment: Selectivity for p38alpha MAP kinase (unknown origin) over mTOR (unknown origin)
Homo sapiens [51] = species on record: Homo sapiens; experiment: Selectivity for p38alpha MAP kinase (unknown origin) over MINK1 (unknown origin)
Homo sapiens [52] = species on record: Homo sapiens; experiment: Selectivity for p38alpha MAP kinase (unknown origin) over CLK1 (unknown origin)
Homo sapiens [53] = species on record: Homo sapiens; experiment: Selectivity for p38alpha MAP kinase (unknown origin) over MET F1200I mutant (unknown origin)
Homo sapiens [54] = species on record: Homo sapiens; experiment: Selectivity for p38alpha MAP kinase (unknown origin) over BTK (unknown origin)
Homo sapiens [55] = species on record: Homo sapiens; experiment: Selectivity for p38alpha MAP kinase (unknown origin) over EPHB4 (unknown origin)
[56] = biological target: T1, Mitogen-activated protein kinase 14; experiment: Competitive inhibition of p38alpha MAP kinase (unknown origin) in presence of 100 uM ATP
Homo sapiens [57] = species on record: Homo sapiens; experiment: Selectivity for p38alpha MAP kinase (unknown origin) over MERTK (unknown origin)
Homo sapiens [58] = species on record: Homo sapiens; experiment: Selectivity for p38alpha MAP kinase (unknown origin) over EPHA1 (unknown origin)
Homo sapiens [59] = species on record: Homo sapiens; experiment: Selectivity for p38alpha MAP kinase (unknown origin) over ACK1 (unknown origin)
Homo sapiens [60] = species on record: Homo sapiens; experiment: Selectivity for p38alpha MAP kinase (unknown origin) over ABL1 E255K mutant (unknown origin)
Homo sapiens [61] = species on record: Homo sapiens; experiment: Selectivity for p38alpha MAP kinase (unknown origin) over CDC42BPB (unknown origin)

Compound: Cc1cc(F)c(NC(=O)c2ccsc2)cc1Nc1ccc2c(c1)OCc1ccc(OC[C@H](O)CO)cc1C2=O
- Selectivity ratio (Homo sapiens [1]): > 1000
- Selectivity ratio (Homo sapiens [2]): > 1000
- Selectivity ratio (Homo sapiens [3]): > 1000
- Selectivity ratio (Homo sapiens [4]): > 1000
- Selectivity ratio (Homo sapiens [5]): > 1000
- inhibition [6]: > 50%
- Selectivity ratio (Homo sapiens [7]): > 1000
- Selectivity ratio (Homo sapiens [8]): > 1000
- Selectivity ratio (Homo sapiens [9]): > 1000
- Selectivity ratio (Homo sapiens [10]): > 1000
- Selectivity ratio (Homo sapiens [11]): > 1000
- Selectivity ratio (Homo sapiens [12]): > 1000
- Selectivity ratio (Homo sapiens [13]): > 1000
- IC50 [14]: 0.125 µM
- Selectivity ratio (Homo sapiens [15]): > 1000
- Selectivity ratio (Homo sapiens [16]): > 1000
- Selectivity ratio (Homo sapiens [17]): > 1000
- Selectivity ratio (Homo sapiens [18]): > 1000
- Selectivity ratio (Homo sapiens [19]): > 1000
- Selectivity ratio (Homo sapiens [20]): > 1000
- Selectivity ratio (Homo sapiens [21]): > 1000
- Selectivity ratio (Homo sapiens [22]): > 1000
- Selectivity ratio (Homo sapiens [23]): > 1000
- Selectivity ratio (Homo sapiens [24]): > 1000
- Selectivity ratio (Homo sapiens [25]): > 1000
- Selectivity ratio (Homo sapiens [26]): > 1000
- Selectivity ratio (Homo sapiens [27]): > 1000
- Selectivity ratio (Homo sapiens [28]): > 1000
- Selectivity ratio (Homo sapiens [29]): > 1000
- Selectivity ratio (Homo sapiens [30]): > 1000
- Selectivity ratio (Homo sapiens [31]): > 1000
- inhibition [32]: > 50%
- Selectivity ratio (Homo sapiens [33]): > 1000
- Selectivity ratio (Homo sapiens [34]): > 1000
- inhibition [35]: > 50%
- Selectivity ratio (Homo sapiens [36]): > 1000
- Selectivity ratio (Homo sapiens [37]): > 1000
- Selectivity ratio (Homo sapiens [38]): > 1000
- Selectivity ratio (Homo sapiens [39]): > 1000
- Selectivity ratio (Homo sapiens [40]): > 1000
- Selectivity ratio (Homo sapiens [41]): > 1000
- Selectivity ratio (Homo sapiens [42]): > 1000
- Selectivity ratio (Homo sapiens [43]): > 1000
- Selectivity ratio (Homo sapiens [44]): > 1000
- Selectivity ratio (Homo sapiens [45]): > 1000
- Selectivity ratio (Homo sapiens [46]): > 1000
- Selectivity ratio (Homo sapiens [47]): > 1000
- Selectivity ratio (Homo sapiens [48]): > 1000
- Selectivity ratio (Homo sapiens [49]): > 1000
- Selectivity ratio (Homo sapiens [50]): > 1000
- Selectivity ratio (Homo sapiens [51]): > 1000
- Selectivity ratio (Homo sapiens [52]): > 1000
- Selectivity ratio (Homo sapiens [53]): > 1000
- Selectivity ratio (Homo sapiens [54]): > 1000
- Selectivity ratio (Homo sapiens [55]): > 1000
- IC50 [56]: 0.0016 µM
- Selectivity ratio (Homo sapiens [57]): > 1000
- Selectivity ratio (Homo sapiens [58]): > 1000
- Selectivity ratio (Homo sapiens [59]): > 1000
- Selectivity ratio (Homo sapiens [60]): > 1000
- Selectivity ratio (Homo sapiens [61]): > 1000
